Laboratory results: ChEMBL document CHEMBL2413058, “Structure-cytotoxic activity relationship of sesquilignan, morinol A” (Bioorg Med Chem Lett, 2013)

Test system: HL-60
Assay: Cytotoxicity against human HL60 cells at 100 uM after 48 hrs by WST8 assay
Type: functional
Settings: HL-60, 48 h

Row | Structure (SMILES) | inhibition at 100 µM [%]
1 | O[C@@H](c1ccccc1)[C@H]1CO[C@H](c2ccccc2)[C@@H](C/C=C/c2cccnc2)C1 | 48
2 | O[C@@H](c1ccccc1)[C@H]1CO[C@H](c2ccccc2)[C@@H](C/C=C/c2ccncc2)C1 | 13

Test system: HL-60
Assay: Cytotoxicity against human HL60 cells after 48 hrs by WST8 assay
Type: functional, cell-based
Settings: HL-60, 48 h

Row | Structure (SMILES) | IC50 [µM]
3 | O[C@@H](c1ccccc1)[C@H]1CO[C@H](c2ccccc2)[C@@H](C/C=C/c2ccccc2F)C1 | 9.53
4 | COc1ccc(/C=C/C[C@H]2C[C@H]([C@H](O)c3ccc(OC)c(OC)c3)CO[C@@H]2c2ccc(OC)c(OC)c2)cc1OC | 23.5
5 | COc1ccc(/C=C/C[C@@H]2C[C@@H]([C@@H](O)c3ccc(OC)c(OC)c3)CO[C@H]2c2ccc(OC)c(OC)c2)cc1OC | 26
6 | C=CC[C@H]1C[C@@H]([C@@H](O)c2ccccc2)CO[C@@H]1c1ccccc1 | 36
7 | O[C@@H](c1ccccc1)[C@H]1CO[C@H](c2ccccc2)[C@@H](C/C=C/c2ccccc2)C1 | 7.04
8 | O[C@@H](c1ccccc1)[C@H]1CO[C@H](c2ccccc2)[C@@H](C/C=C/c2ccccn2)C1 | 36.4
9 | O[C@@H](c1ccccc1)[C@H]1CO[C@H](c2ccccc2)[C@@H](C/C=C/c2cccnc2)C1 | > 100
10 | O[C@@H](c1ccccc1)[C@H]1CO[C@H](c2ccccc2)[C@@H](C/C=C/c2ccncc2)C1 | > 100
11 | Oc1ccccc1/C=C/C[C@H]1C[C@@H]([C@@H](O)c2ccccc2)CO[C@@H]1c1ccccc1 | 10.8
12 | Oc1cccc(/C=C/C[C@H]2C[C@@H]([C@@H](O)c3ccccc3)CO[C@@H]2c2ccccc2)c1 | 12.8
13 | Oc1ccc(/C=C/C[C@H]2C[C@@H]([C@@H](O)c3ccccc3)CO[C@@H]2c2ccccc2)cc1 | 7.38
14 | COc1ccccc1/C=C/C[C@H]1C[C@@H]([C@@H](O)c2ccccc2)CO[C@@H]1c1ccccc1 | 10.1
15 | COc1cccc(/C=C/C[C@H]2C[C@@H]([C@@H](O)c3ccccc3)CO[C@@H]2c2ccccc2)c1 | 9.62
16 | COc1ccc(/C=C/C[C@H]2C[C@@H]([C@@H](O)c3ccccc3)CO[C@@H]2c2ccccc2)cc1 | 9.01
17 | O[C@@H](c1ccccc1)[C@H]1CO[C@H](c2ccccc2)[C@@H](C/C=C/c2cccc(F)c2)C1 | 9.17
18 | O[C@@H](c1ccccc1)[C@H]1CO[C@H](c2ccccc2)[C@@H](C/C=C/c2ccc(F)cc2)C1 | 8.11
19 | O=[N+]([O-])c1ccccc1/C=C/C[C@H]1C[C@@H]([C@@H](O)c2ccccc2)CO[C@@H]1c1ccccc1 | 7.25
20 | O=[N+]([O-])c1cccc(/C=C/C[C@H]2C[C@@H]([C@@H](O)c3ccccc3)CO[C@@H]2c2ccccc2)c1 | 6.35
21 | O=[N+]([O-])c1ccc(/C=C/C[C@H]2C[C@@H]([C@@H](O)c3ccccc3)CO[C@@H]2c2ccccc2)cc1 | 4.88
22 | Cc1ccc(/C=C/C[C@H]2C[C@@H]([C@@H](O)c3ccccc3)CO[C@@H]2c2ccccc2)cc1C | 9.88
23 | O[C@@H](c1ccccc1)[C@H]1CO[C@H](c2ccccc2)[C@@H](C/C=C/C2CCCC2)C1 | 9.06
24 | O[C@@H](c1ccccc1)[C@H]1CO[C@H](c2ccccc2)[C@@H](C/C=C/C2CCCCC2)C1 | 6.26
25 | CCCCCC/C=C/C[C@H]1C[C@@H]([C@@H](O)c2ccccc2)CO[C@@H]1c1ccccc1 | 4.99
26 | COc1ccc(/C=C/C[C@H]2C[C@@H]([C@@H](O)c3ccc(OC)c(OC)c3)CO[C@@H]2c2ccc(OC)c(OC)c2)cc1OC | 34.7

Test system: HeLa
Assay: Cytotoxicity against human HeLa cells at 100 uM after 48 hrs by WST8 assay
Type: functional
Settings: not given

Row | Structure (SMILES) | inhibition at 100 µM [%]
27 | COc1ccc(/C=C/C[C@H]2C[C@@H]([C@@H](OC(C)=O)c3ccc(OC)c(OC)c3)CO[C@@H]2c2ccc(OC)c(OC)c2)cc1OC | 29
28 | COc1ccc(/C=C/C[C@H]2C[C@@H]([C@@H](OC)c3ccc(OC)c(OC)c3)CO[C@@H]2c2ccc(OC)c(OC)c2)cc1OC | 4.8
29 | O[C@@H](c1ccccc1)[C@H]1CO[C@H](c2ccccc2)[C@@H](C/C=C/c2cccnc2)C1 | 4
30 | O[C@@H](c1ccccc1)[C@H]1CO[C@H](c2ccccc2)[C@@H](C/C=C/c2ccncc2)C1 | 34
31 | COc1ccc(/C=C/C[C@@H]2C[C@@H]([C@@H](OC(C)=O)c3ccc(OC)c(OC)c3)CO[C@H]2c2ccc(OC)c(OC)c2)cc1OC | 48
32 | COc1ccc(/C=C/C[C@@H]2C[C@@H]([C@@H](OC)c3ccc(OC)c(OC)c3)CO[C@H]2c2ccc(OC)c(OC)c2)cc1OC | 34

Test system: HeLa
Assay: Ratio of IC50 for human HeLa cells to IC50 for human HL60 cells
Type: functional
Settings: not given

Row | Structure (SMILES) | Ratio IC50
33 | O[C@@H](c1ccccc1)[C@H]1CO[C@H](c2ccccc2)[C@@H](C/C=C/c2ccccc2)C1 | 1.5

Test system: HeLa
Assay: Cytotoxicity against human HeLa cells after 48 hrs by WST8 assay
Type: functional, cell-based
Settings: not given

Row | Structure (SMILES) | IC50 [µM]
34 | O[C@@H](c1ccccc1)[C@H]1CO[C@H](c2ccccc2)[C@@H](C/C=C/c2ccccc2F)C1 | 9.73
35 | COc1ccc(/C=C/C[C@H]2C[C@H]([C@H](O)c3ccc(OC)c(OC)c3)CO[C@@H]2c2ccc(OC)c(OC)c2)cc1OC | 34.6
36 | COc1ccc(/C=C/C[C@@H]2C[C@@H]([C@@H](O)c3ccc(OC)c(OC)c3)CO[C@H]2c2ccc(OC)c(OC)c2)cc1OC | 30.6
37 | COc1ccc(CCC[C@H]2C[C@@H]([C@@H](O)c3ccc(OC)c(OC)c3)CO[C@@H]2c2ccc(OC)c(OC)c2)cc1OC | 37.7
38 | COc1ccc(/C=C/C[C@H]2C[C@@H]([C@@H](OC(C)=O)c3ccc(OC)c(OC)c3)CO[C@@H]2c2ccc(OC)c(OC)c2)cc1OC | > 100
39 | COc1ccc(/C=C/C[C@H]2C[C@@H]([C@@H](OC)c3ccc(OC)c(OC)c3)CO[C@@H]2c2ccc(OC)c(OC)c2)cc1OC | > 100
40 | COc1ccc([C@H]2OC[C@H]([C@@H](O)c3ccc(OC)c(OC)c3)C[C@@H]2C/C=C/c2ccc(OC)c(OC)c2)cc1 | 46.7
41 | COc1cccc([C@H]2OC[C@H]([C@@H](O)c3ccc(OC)c(OC)c3)C[C@@H]2C/C=C/c2ccc(OC)c(OC)c2)c1 | 21.8
42 | COc1ccc(/C=C/C[C@H]2C[C@@H]([C@@H](O)c3ccc(OC)c(OC)c3)CO[C@@H]2c2ccccc2)cc1OC | 17
43 | COc1ccc([C@H](O)[C@H]2CO[C@H](c3ccc(OC)c(OC)c3)[C@@H](C/C=C/c3ccc(OC)c(OC)c3)C2)cc1 | 46
44 | COc1cccc([C@H](O)[C@H]2CO[C@H](c3ccc(OC)c(OC)c3)[C@@H](C/C=C/c3ccc(OC)c(OC)c3)C2)c1 | 21.2
45 | COc1ccc(/C=C/C[C@H]2C[C@@H]([C@@H](O)c3ccccc3)CO[C@@H]2c2ccc(OC)c(OC)c2)cc1OC | 15.5
46 | COc1ccc(/C=C/C[C@H]2C[C@@H]([C@@H](O)c3ccc(OC)c(OC)c3)CO[C@@H]2c2ccc(OC)c(OC)c2)cc1 | 12.2
47 | COc1cccc(/C=C/C[C@H]2C[C@@H]([C@@H](O)c3ccc(OC)c(OC)c3)CO[C@@H]2c2ccc(OC)c(OC)c2)c1 | 14
48 | COc1ccc([C@H]2OC[C@H]([C@@H](O)c3ccc(OC)c(OC)c3)C[C@@H]2C/C=C/c2ccccc2)cc1OC | 14.8
49 | C=CC[C@H]1C[C@@H]([C@@H](O)c2ccccc2)CO[C@@H]1c1ccccc1 | 25.4
50 | O[C@@H](c1ccccc1)[C@H]1CO[C@H](c2ccccc2)[C@@H](C/C=C/c2ccccc2)C1 | 6.06
51 | O[C@@H](c1ccccc1)[C@H]1CO[C@H](c2ccccc2)[C@@H](C/C=C/c2ccccn2)C1 | 33.8
52 | O[C@@H](c1ccccc1)[C@H]1CO[C@H](c2ccccc2)[C@@H](C/C=C/c2cccnc2)C1 | > 100
53 | O[C@@H](c1ccccc1)[C@H]1CO[C@H](c2ccccc2)[C@@H](C/C=C/c2ccncc2)C1 | > 100
54 | Oc1ccccc1/C=C/C[C@H]1C[C@@H]([C@@H](O)c2ccccc2)CO[C@@H]1c1ccccc1 | 21.8
55 | Oc1cccc(/C=C/C[C@H]2C[C@@H]([C@@H](O)c3ccccc3)CO[C@@H]2c2ccccc2)c1 | 18.6
56 | Oc1ccc(/C=C/C[C@H]2C[C@@H]([C@@H](O)c3ccccc3)CO[C@@H]2c2ccccc2)cc1 | 14.4
57 | COc1ccccc1/C=C/C[C@H]1C[C@@H]([C@@H](O)c2ccccc2)CO[C@@H]1c1ccccc1 | 14.7
58 | COc1cccc(/C=C/C[C@H]2C[C@@H]([C@@H](O)c3ccccc3)CO[C@@H]2c2ccccc2)c1 | 10.9

Row | Structure (SMILES) | IC50 [µM]
59 | COc1ccc(/C=C/C[C@H]2C[C@@H]([C@@H](O)c3ccccc3)CO[C@@H]2c2ccccc2)cc1 | 8.3
60 | O[C@@H](c1ccccc1)[C@H]1CO[C@H](c2ccccc2)[C@@H](C/C=C/c2cccc(F)c2)C1 | 8.38
61 | O[C@@H](c1ccccc1)[C@H]1CO[C@H](c2ccccc2)[C@@H](C/C=C/c2ccc(F)cc2)C1 | 8.34
62 | O=[N+]([O-])c1ccccc1/C=C/C[C@H]1C[C@@H]([C@@H](O)c2ccccc2)CO[C@@H]1c1ccccc1 | 11.8
63 | O=[N+]([O-])c1cccc(/C=C/C[C@H]2C[C@@H]([C@@H](O)c3ccccc3)CO[C@@H]2c2ccccc2)c1 | 7.85
64 | O=[N+]([O-])c1ccc(/C=C/C[C@H]2C[C@@H]([C@@H](O)c3ccccc3)CO[C@@H]2c2ccccc2)cc1 | 12.4
65 | Cc1ccc(/C=C/C[C@H]2C[C@@H]([C@@H](O)c3ccccc3)CO[C@@H]2c2ccccc2)cc1C | 10
66 | O[C@@H](c1ccccc1)[C@H]1CO[C@H](c2ccccc2)[C@@H](C/C=C/C2CCCC2)C1 | 9.33
67 | O[C@@H](c1ccccc1)[C@H]1CO[C@H](c2ccccc2)[C@@H](C/C=C/C2CCCCC2)C1 | 6.44
68 | CCCCCC/C=C/C[C@H]1C[C@@H]([C@@H](O)c2ccccc2)CO[C@@H]1c1ccccc1 | 7.4
69 | COc1ccc(CCC[C@@H]2C[C@@H]([C@@H](O)c3ccc(OC)c(OC)c3)CO[C@H]2c2ccc(OC)c(OC)c2)cc1OC | 35.7
70 | COc1ccc(/C=C/C[C@@H]2C[C@@H]([C@@H](OC(C)=O)c3ccc(OC)c(OC)c3)CO[C@H]2c2ccc(OC)c(OC)c2)cc1OC | > 100
71 | COc1ccc(/C=C/C[C@@H]2C[C@@H]([C@@H](OC)c3ccc(OC)c(OC)c3)CO[C@H]2c2ccc(OC)c(OC)c2)cc1OC | > 100
72 | COc1ccc([C@@H]2OC[C@H]([C@@H](O)c3ccc(OC)c(OC)c3)C[C@H]2C/C=C/c2ccc(OC)c(OC)c2)cc1 | 29.2
73 | COc1cccc([C@@H]2OC[C@H]([C@@H](O)c3ccc(OC)c(OC)c3)C[C@H]2C/C=C/c2ccc(OC)c(OC)c2)c1 | 30.1
74 | COc1ccc(/C=C/C[C@@H]2C[C@@H]([C@@H](O)c3ccc(OC)c(OC)c3)CO[C@H]2c2ccccc2)cc1OC | 16.1
75 | COc1ccc([C@H](O)[C@H]2CO[C@@H](c3ccc(OC)c(OC)c3)[C@H](C/C=C/c3ccc(OC)c(OC)c3)C2)cc1 | 32.2
76 | COc1cccc([C@H](O)[C@H]2CO[C@@H](c3ccc(OC)c(OC)c3)[C@H](C/C=C/c3ccc(OC)c(OC)c3)C2)c1 | 18.6
77 | COc1ccc(/C=C/C[C@@H]2C[C@@H]([C@@H](O)c3ccccc3)CO[C@H]2c2ccc(OC)c(OC)c2)cc1OC | 16.8
78 | COc1ccc(/C=C/C[C@@H]2C[C@@H]([C@@H](O)c3ccc(OC)c(OC)c3)CO[C@H]2c2ccc(OC)c(OC)c2)cc1 | 17.1
79 | COc1cccc(/C=C/C[C@@H]2C[C@@H]([C@@H](O)c3ccc(OC)c(OC)c3)CO[C@H]2c2ccc(OC)c(OC)c2)c1 | 16.4
80 | COc1ccc([C@H](O)[C@H]2CO[C@@H](c3ccc(OC)c(OC)c3)[C@H](C/C=C/c3ccccc3)C2)cc1OC | 16.1
81 | COc1ccc(/C=C/C[C@H]2C[C@@H]([C@@H](O)c3ccc(OC)c(OC)c3)CO[C@@H]2c2ccc(OC)c(OC)c2)cc1OC | 23.8
82 | COc1ccc(/C=C/C[C@@H]2C[C@H]([C@H](O)c3ccc(OC)c(OC)c3)CO[C@H]2c2ccc(OC)c(OC)c2)cc1OC | 28.7
